Results from ChEMBL document CHEMBL4627306, “Novel cilengitide-based cyclic RGD peptides as αvβ3 integrin inhibitors” (Bioorg Med Chem Lett, 2020).
Calls of active or inactive are those of the source. The calls are words filed in the database; no cut-off is given here.

What was measured:
Integrin alpha-V/beta-8 = Integrin alpha-V/beta-8 (Homo sapiens, UniProt P06756+P26012); experiment: Inhibition of latency-associated peptide/TGF-beta binding to recombinant human integrin alphaV (Phe31 to Val992 residues) beta8 (Glu43 to Arg684 residues) expressed in CHO cells by ELISA based solid phase binding assay; format: cell-based
Integrin alpha-5/beta-1 = Integrin alpha-5/beta-1 (Homo sapiens, UniProt P05556+P08648); experiment: Inhibition of fibronectin binding to recombinant human integrin alpha5 (Phe42 to Tyr995 residues) beta1 (Gln21 to Asp728 residues) expressed in CHO cells by ELISA based solid phase binding assay; format: cell-based
HUVEC [1] = experiment: Antiproliferative activity against HUVEC assessed as effect on cell viability up to 30 uM after 24 hrs by trypan blue assay; format: functional, cell-based; details: Homo sapiens
Integrin alpha-V/beta-6 = Integrin alpha-V/beta-6 (Homo sapiens, UniProt P06756+P18564); experiment: Inhibition of latency-associated peptide/TGF-beta binding to recombinant human integrin alphaV (Phe31 to Val992 residues) beta6 (Gly22 to Asn707 residues) expressed in CHO cells by ELISA based solid phase binding assay; format: cell-based
Integrin alpha-V/beta-5 = Integrin alpha-V/beta-5 (Homo sapiens, UniProt P06756+P18084); experiment: Inhibition of vitronectin binding to recombinant human integrin alphaV (Phe31 to Val992 residues) beta5 (Gly24 to Asn719 residues) expressed in CHO cells by ELISA based solid phase binding assay; format: cell-based
[2] = target: Integrin alpha-IIb/beta-3 (Homo sapiens, UniProt P05106+P08514); experiment: Inhibition of fibrinogen binding to human platelet integrin alpha2b beta3 by ELISA based solid phase binding assay
Integrin alpha-V/beta-3 = Integrin alpha-V/beta-3 (Homo sapiens, UniProt P05106+P06756); experiment: Inhibition of vitronectin binding to recombinant human integrin alphaV (Phe31 to Val992 residues) beta3 (Gly27 to Asp718 residues) expressed in CHO cells by ELISA based solid phase binding assay; format: cell-based
HUVEC [3] = experiment: Inhibition of tube formation in HUVEC up to 30 uM after 24 hrs […]; format: functional, cell-based; details: Homo sapiens

Row | Compound | IC50 (Integrin alpha-V/beta-8) | IC50 (Integrin alpha-5/beta-1) | Activity (HUVEC [1]) | IC50 (Integrin alpha-V/beta-6) | IC50 (Integrin alpha-V/beta-5) | IC50 [2] | IC50 (Integrin alpha-V/beta-3) | inhibition (HUVEC [3])
1 | CC1(C)NC(=O)[C@@H](Cc2ccccc2)NC(=O)[C@H](CC(=O)O)NC(=O)CNC(=O)[C@H](CCCNC(=N)N)NC1=O | 806 nM | 141 nM | inactive | 378 nM | 50 nM | > 10000 nM | 5.5 nM | inactive
2 | N=C(N)NCCC[C@@H]1NC(=O)C2(CCCCC2)NC(=O)[C@@H](Cc2ccccc2)NC(=O)[C@H](CC(=O)O)NC(=O)CNC1=O | 1500 nM | 87.8 nM | inactive | 608 nM | 63 nM | > 10000 nM | 3.3 nM | inactive
3 | C[Si]1(C)C[C@@H]2C(=O)N[C@@H](CCCNC(=N)N)C(=O)NCC(=O)NC(CC(=O)O)C(=O)NC(Cc3ccccc3)C(=O)N2C1 (single isomer, unassigned) | 319 nM | 1080 nM | inactive | 178 nM | 66 nM | > 10000 nM | 11 nM | inactive
4 | COc1c2cccc1C(=O)N[C@@H](CCCNC(=N)N)C(=O)NCC(=O)N[C@@H](CC(=O)O)C(=O)N[C@H](Cc1ccccc1)C(=O)N2 | 6880 nM | 921 nM | inactive | 709 nM | 4930 nM | 4860 nM | 72 nM | inactive
5 | N=C(N)NCCC[C@@H]1NC(=O)CC2(CCCCC2)CNC(=O)[C@@H](Cc2ccccc2)NC(=O)[C@H](CC(=O)O)NC(=O)CNC1=O | 3950 nM | 623 nM | inactive | 1970 nM | 303 nM | 657 nM | 9.9 nM | inactive
